Assay results taken from patent publication US7427597B2, “Method of treating brain tissue damages” (Academia Sinica, priority 2005, dated 2008).
Where no end group is shown, it is not given here.

Test: Physiological parameters in ischemic rats
Assay type: in vivo
Settings: SN treated vs saline treated rats, n=7
From the text: Seven SN treated rats and seven-saline treated rats also had their physiological parameters measured.

TNEIVEEQYTPQSLATLESVFQELGKLTGPNNQ [SN, secretoneurin]
No difference: blood gases | blood glucose | serum electrolyte levels | systemic blood pressure
